Values quoted from earlier work as cited in patent US5344831A, “Diazabicyclo derivatives” (Nisshin Flour Milling Co., Ltd., priority 1992, dated 1994).

Test system: nausea and vomiting
Conditions: intravenous administration at high dose; Gralla et al, N. Engl. J. Med. 305, 905-909 (1981); cited from earlier work

CCN(CC)CCNC(=O)c1cc(Cl)c(N)cc1OC [metoclopramide]
prevention of nausea and vomiting: effectively prevented
